# Tests used:
# [1] = target: Fatty acid-binding protein 5 (Homo sapiens, UniProt Q01469); assay: Displacement of DAUDA from recombinant human N-terminal His-tagged FABP5 expressed in Escherichia coli BL21(DE3) after 20 mins by fluorescence assay
# [2] = target: Fatty acid-binding protein, heart (Homo sapiens, UniProt P05413); assay: Displacement of DAUDA from recombinant human N-terminal His-tagged FABP3 expressed in Escherichia coli BL21(DE3) after 20 mins by fluorescence assay
# [3] = target: Fatty acid-binding protein, brain (Homo sapiens, UniProt O15540); assay: Displacement of ANS from recombinant human N-terminal His-tagged FABP7 expressed in Escherichia coli BL21(DE3) after 20 mins by fluorescence assay
# [4] = Colloidal aggregation of the compound at 20 uM by dynamic light scattering method; type: physicochemical
# [5] = Half life in C57BL/6 mouse at 20 mg/kg, ip by LC-MS analysis; type: ADME, organism-based; settings: in vivo
# Chain of Fatty acid-binding protein, heart (P05413 whole entry): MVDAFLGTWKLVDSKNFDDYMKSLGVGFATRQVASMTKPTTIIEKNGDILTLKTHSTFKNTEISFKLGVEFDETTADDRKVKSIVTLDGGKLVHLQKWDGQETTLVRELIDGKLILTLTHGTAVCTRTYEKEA
# Chain of Fatty acid-binding protein 5 (Q01469 whole entry): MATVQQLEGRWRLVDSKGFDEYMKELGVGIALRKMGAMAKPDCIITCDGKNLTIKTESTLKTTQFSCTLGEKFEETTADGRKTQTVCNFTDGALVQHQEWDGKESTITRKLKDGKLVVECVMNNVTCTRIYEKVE
# Chain of Fatty acid-binding protein, brain (O15540 whole entry): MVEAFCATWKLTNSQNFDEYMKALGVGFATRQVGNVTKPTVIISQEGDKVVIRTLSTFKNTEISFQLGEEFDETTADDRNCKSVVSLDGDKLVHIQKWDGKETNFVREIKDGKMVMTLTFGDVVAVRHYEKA
Ki ([1]; read-out: Ki),Ki ([2]; read-out: Ki),Ki ([3]; read-out: Ki),Compound,further results
> 10 µM,> 10 µM,> 10 µM,COc1cc([C@H]2[C@H](C(=O)O)[C@H](c3ccc(O)c(OC)c3)[C@H]2C(=O)O)ccc1O,
,2.82 µM,,O=C(O)[C@H]1[C@H](c2ccccc2)[C@H](C(=O)Oc2cccc3ccccc23)[C@H]1c1ccccc1,
,> 10 µM,> 10 µM,O=C(O)[C@H]1[C@H](c2ccccc2Br)[C@H](C(=O)O[C@@H]2CCCC[C@H]2c2ccccc2)[C@H]1c1ccccc1Br,
> 10 µM,> 10 µM,> 10 µM,O=C(OCc1ccccc1)[C@H]1[C@H](c2ccccc2)[C@H](C(=O)OCc2ccccc2)[C@H]1c1ccccc1,
> 10 µM,> 10 µM,> 10 µM,COc1ccc([C@H]2[C@H](C(=O)O)[C@H](c3ccc(OC)c(OC)c3)[C@H]2C(=O)O)cc1OC,
> 10 µM,> 10 µM,> 10 µM,O=C(OCc1ccc(F)cc1)[C@H]1[C@H](c2ccccc2)[C@H](C(=O)OCc2ccc(F)cc2)[C@H]1c1ccccc1,
,3.26 µM,,O=C(O)[C@H]1[C@@H](c2ccccc2)[C@H](C(=O)Oc2cccc3ccccc23)[C@@H]1c1ccccc1,
,2.98 µM,0.54 µM,O=C(O)[C@H]1[C@H](c2ccccc2)[C@H](C(=O)Oc2cc(Cl)c(Cl)cc2Cl)[C@H]1c1ccccc1,
1.23 µM,> 10 µM,,O=C(O)[C@H]1[C@H](c2c(Cl)cccc2Cl)[C@H](C(=O)O[C@@H]2CCCC[C@H]2c2ccccc2)[C@H]1c1c(Cl)cccc1Cl,
0.89 µM,> 10 µM,0.78 µM,C#Cc1cccc(OC(=O)[C@H]2[C@@H](c3ccccc3)[C@H](C(=O)O)[C@@H]2c2ccccc2)c1 (racemic),
1.7 µM,> 10 µM,> 10 µM,O=C(O)[C@H]1[C@H](c2ccccc2Cl)[C@H](C(=O)O[C@@H]2CCCC[C@H]2c2ccccc2)[C@H]1c1ccccc1Cl (racemic),
,2.7 µM,0.45 µM,O=C(O)C1C(c2ccccc2)C(C(=O)Oc2cccc3ccccc23)C1c1ccccc1 (racemic),half-life [5]: 3 h; Activity [4]: Not Active

# Second part, the compound before the results:
Compound,Ki ([1]; read-out: Ki),Ki ([2]; read-out: Ki),Ki ([3]; read-out: Ki),further results
O=C(O)[C@H]1[C@H](c2ccccc2)[C@@H](C(=O)Nc2nc(-c3ccc4c(c3)CCCC4)cs2)[C@H]1c1ccccc1,> 10 µM,> 10 µM,> 10 µM,
COc1ccc(COC(=O)[C@H]2[C@H](c3ccccc3)[C@H](C(=O)OCc3ccc(OC)cc3)[C@H]2c2ccccc2)cc1,> 10 µM,> 10 µM,> 10 µM,
O=C(O)[C@H]1[C@H](c2ccccc2)[C@H](C(=O)O)[C@H]1c1ccccc1,> 10 µM,> 10 µM,> 10 µM,
O=C(OCC1CCOCC1)[C@H]1[C@H](c2ccccc2)[C@H](C(=O)OCC2CCOCC2)[C@H]1c1ccccc1,> 10 µM,> 10 µM,> 10 µM,
COc1ccccc1[C@H]1[C@H](C(=O)O)[C@H](c2ccccc2OC)[C@H]1C(=O)Oc1cccc2ncccc12,3.93 µM,> 10 µM,> 10 µM,
COc1ccccc1[C@H]1[C@H](C(=O)O)[C@H](c2ccccc2OC)[C@H]1C(=O)O[C@@H]1CCCC[C@H]1c1ccccc1,,0.4 µM,0.4 µM,
O=C(O)[C@H]1[C@H](c2ccccc2)[C@H](C(=O)Nc2nc(-c3ccc4c(c3)CCCC4)cs2)[C@H]1c1ccccc1,> 10 µM,> 10 µM,> 10 µM,
O=C(O)[C@H]1[C@H](c2ccccc2)[C@H](C(=O)Oc2ccccc2-c2ccccc2)[C@H]1c1ccccc1,,,0.35 µM,
O=C(O)[C@H]1[C@H](c2ccccc2[N+](=O)[O-])[C@H](C(=O)Oc2cccc3ccccc23)[C@H]1c1ccccc1[N+](=O)[O-],> 10 µM,> 10 µM,> 10 µM,
O=C(O)[C@H]1[C@H](c2ccccc2)[C@H](C(=O)O[C@@H]2CCCC[C@H]2c2ccccc2)[C@H]1c1ccccc1,,,,Activity [4]: Not Active
O=C(O)[C@H]1[C@H](c2ccccc2)[C@H](C(=O)OC2CCCCC2)[C@H]1c1ccccc1,,> 10 µM,0.5 µM,
O=C(O)[C@H]1[C@H](c2ccccc2[N+](=O)[O-])[C@H](C(=O)O[C@@H]2CCCC[C@H]2c2ccccc2)[C@H]1c1ccccc1[N+](=O)[O-],> 10 µM,> 10 µM,> 10 µM,
O=C(Oc1cccc(-c2ccccc2)c1)[C@H]1[C@H](c2ccccc2)[C@H](C(=O)Oc2cccc(-c3ccccc3)c2)[C@H]1c1ccccc1,,,,Ki [1]: Nd(Insoluble); Ki [2]: Nd(Insoluble); Ki [3]: Nd(Insoluble)
O=C(O)[C@H]1[C@H](c2ccccc2)[C@H](C(=O)OCC(F)(F)F)[C@H]1c1ccccc1,> 10 µM,> 10 µM,,
O=C(O)[C@H]1[C@H](c2ccccc2)[C@H](C(=O)OCc2ccccc2)[C@H]1c1ccccc1,3.81 µM,> 10 µM,,
O=C(O)[C@H]1[C@H](c2ccc(O)cc2)[C@H](C(=O)Oc2cccc3ccccc23)[C@H]1c1ccc(O)cc1 (racemic),> 10 µM,2.3 µM,,

# From ChEMBL document CHEMBL4270525, “SAR studies on truxillic acid mono esters as a new class of antinociceptive agents targeting fatty acid binding proteins” (Eur J Med Chem, 2018)
